According to ChEMBL document CHEMBL1140352, “Synthesis and structure-activity relationship of novel 6-aryl-1,4-dihydrobenzo[d][1,3]oxazine-2-thiones as progesterone receptor modulators leading to the potent and selective nonsteroidal progesterone receptor agonist tanaproget” (J Med Chem, 2005):

Target: T1, Progesterone receptor (Homo sapiens, UniProt P06401)
T1 sequence (P06401 whole entry): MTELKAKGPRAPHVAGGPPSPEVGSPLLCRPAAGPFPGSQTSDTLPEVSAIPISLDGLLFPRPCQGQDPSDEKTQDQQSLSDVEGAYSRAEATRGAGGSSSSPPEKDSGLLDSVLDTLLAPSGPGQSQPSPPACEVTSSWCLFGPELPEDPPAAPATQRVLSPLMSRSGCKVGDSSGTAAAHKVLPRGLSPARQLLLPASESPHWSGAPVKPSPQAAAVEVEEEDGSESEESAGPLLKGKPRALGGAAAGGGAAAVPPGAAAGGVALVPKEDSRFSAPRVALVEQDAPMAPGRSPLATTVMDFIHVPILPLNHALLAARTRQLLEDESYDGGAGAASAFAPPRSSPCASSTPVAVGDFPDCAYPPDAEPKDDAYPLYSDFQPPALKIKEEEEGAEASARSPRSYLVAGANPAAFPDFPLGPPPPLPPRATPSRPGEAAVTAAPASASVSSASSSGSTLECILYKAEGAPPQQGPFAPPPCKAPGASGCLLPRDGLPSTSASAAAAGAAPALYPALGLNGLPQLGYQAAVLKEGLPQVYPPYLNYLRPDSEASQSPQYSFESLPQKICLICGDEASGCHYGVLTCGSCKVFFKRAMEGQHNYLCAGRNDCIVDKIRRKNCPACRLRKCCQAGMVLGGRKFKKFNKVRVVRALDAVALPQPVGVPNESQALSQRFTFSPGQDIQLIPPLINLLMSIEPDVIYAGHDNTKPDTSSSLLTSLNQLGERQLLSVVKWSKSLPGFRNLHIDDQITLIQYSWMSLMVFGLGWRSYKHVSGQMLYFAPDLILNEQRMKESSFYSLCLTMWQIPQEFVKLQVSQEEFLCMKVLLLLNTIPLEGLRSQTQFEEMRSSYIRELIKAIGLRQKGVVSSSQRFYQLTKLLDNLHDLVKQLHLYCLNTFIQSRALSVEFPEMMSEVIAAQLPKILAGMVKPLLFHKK
Test: Inhibition of human progesterone receptor

IC50	Structure (SMILES)
73 nM	CC(C)n1c(=O)[nH]c2ccc(-c3cccc(Cl)c3)cc21

System: T47D
Test: Effective concentration against alkaline phosphatase activity in human T47D breast carcinoma cell line
Format: functional, cell-based

EC50	Structure (SMILES)
1.2 nM	CC1(C)OC(S)=Nc2ccc(-c3coc(C#N)c3)cc21
23 nM	CC1Nc2ccc(-c3ccc(F)c(C#N)c3)cc2C(C)(C)O1 (configuration not stated)
1.1 nM	Cn1c(C#N)ccc1-c1ccc2c(c1)C(C)(C)OC(=O)N2
0.15 nM	Cn1c(C#N)ccc1-c1ccc2c(c1)C(C)(C)OC(=S)N2 [TANAPROGET]
0.5 nM	Cn1c(C#N)ccc1-c1ccc2c(c1)C1(CCC1)OC(S)=N2
21.1 nM	CN1C(=S)OC(C)(C)c2cc(-c3ccc(C#N)[nH]3)ccc21
0.1 nM	CCC1(C)OC(S)=Nc2ccc(-c3ccc(C#N)n3C)cc21 (configuration not stated)
0.15 nM	CC1(C)OC(=S)Nc2ccc(-c3ccc(C#N)[nH]3)cc21
0.35 nM	Cn1c(C#N)ccc1-c1ccc2c(c1)C(C)(c1cccs1)OC(S)=N2 (configuration not stated)
0.4 nM	CC1(C)OC(S)=Nc2ccc(-c3csc(C#N)c3)cc21
0.1 nM	CCC1(CC)OC(S)=Nc2ccc(-c3ccc(C#N)n3C)cc21
